Assay results published in patent US12077503B2, “Substituted cyclic amides and their use as herbicides” (FMC CORPORATION, priority 2015, dated 2024).

Key:
Format in all cases: in vivo
[1] = tested on: pigweed (Amaranthus retroflexus); experiment: Test A preemergence
[2] = tested on: giant foxtail (Setaria faberii); experiment: Test A preemergence
Method in brief: (§1)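 Compounds were formulated in a non-phytotoxic solvent mixture with surfactant and applied as a preemergence directed soil spray after seeding, or sprayed postemergence over plants 2 to 10 cm tall at the one- to two-leaf stage. Evaluation after about 10 d compared treated with untreated controls, using a scale from 0 (no effect) to 100 (complete control).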

[3] = tested on: barnyardgrass (Echinochloa crus-galli); experiment: Test A preemergence
Method in brief: as §1

[4] = tested on: ryegrass, Italian (Italian ryegrass, Lolium multiflorum); experiment: Test A preemergence
Method in brief: as §1

[5] = tested on: ragweed (common ragweed, Ambrosia elatior); experiment: Test A preemergence
Method in brief: as §1

[6] = tested on: Kochia (Kochia scoparia); experiment: Test A preemergence
Method in brief: as §1

[7] = tested on: sedge, umbrella (small-flower umbrella sedge, Cyperus difformis); experiment: Test B flooded paddy test; details: Flood, 250 g ai/ha; 0 to 100 scale where 0 is no effect and 100 is complete control; 13 to 15 d
Method in brief: (§2)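 2-leaf plants; pots flooded 3 cm over soil; cpd added to paddy water; depth held; greenhouse 13–15 d; visual rating vs controls, 0 = no effect, 100 = complete control.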

[8] = tested on: rice (Oryra sativa); experiment: Test B flooded paddy test; details: Flood, 250 g ai/ha; 0 to 100 scale where 0 is no effect and 100 is complete control; 13 to 15 d
Method in brief: as §2

[9] = tested on: barnyardgrass (Echinochloa crus-galli); experiment: Test B flooded paddy test; details: Flood, 250 g ai/ha; 0 to 100 scale where 0 is no effect and 100 is complete control; 13 to 15 d
Method in brief: as §2

[10] = tested on: ducksalad (Heteranthera limosa); experiment: Test B flooded paddy test; details: Flood, 250 g ai/ha; 0 to 100 scale where 0 is no effect and 100 is complete control; 13 to 15 d
Method in brief: as §2

[11] = tested on: blackgrass (Alopecurus myosuroides); experiment: Test A postemergence; details: postemergence, 0 to 100 scale (0 no effect, 100 complete control)
Method in brief: as §1

[12] = tested on: pigweed (Amaranthus retroflexus); experiment: Test A postemergence; details: postemergence, 0 to 100 scale (0 no effect, 100 complete control)
Method in brief: as §1

[13] = tested on: corn (Zea mays); experiment: Test A postemergence; details: postemergence, 0 to 100 scale (0 no effect, 100 complete control)
Method in brief: as §1

[14] = tested on: giant foxtail (Setaria faberii); experiment: Test A postemergence; details: postemergence, 0 to 100 scale (0 no effect, 100 complete control)
Method in brief: as §1

[15] = tested on: barnyardgrass (Echinochloa crus-galli); experiment: Test A postemergence; details: postemergence, 0 to 100 scale (0 no effect, 100 complete control)
Method in brief: as §1

[16] = tested on: wheat (Triticum aestivum); experiment: Test A postemergence; details: postemergence, 0 to 100 scale (0 no effect, 100 complete control)
Method in brief: as §1

[17] = tested on: ryegrass, Italian (Italian ryegrass, Lolium multiflorum); experiment: Test A postemergence; details: postemergence, 0 to 100 scale (0 no effect, 100 complete control)
Method in brief: as §1

[18] = tested on: ragweed (common ragweed, Ambrosia elatior); experiment: Test A postemergence; details: postemergence, 0 to 100 scale (0 no effect, 100 complete control)
Method in brief: as §1

[19] = tested on: Galium (catchweed bedstraw, Galium aparine); experiment: Test A postemergence; details: postemergence, 0 to 100 scale (0 no effect, 100 complete control)
Method in brief: as §1

[20] = tested on: Kochia (Kochia scoparia); experiment: Test A postemergence; details: postemergence, 0 to 100 scale (0 no effect, 100 complete control)
Method in brief: as §1

[21] = 125 g ai/ha, Preemergence, visual injury after approximately 10 d, 0 to 100 scale where 0 is no effect and 100 is complete control
[22] = 500 g ai/ha, preemergence, 0 to 100 scale, 0 = no effect, 100 = complete control
[23] = 125 g ai/ha, visual rating after approx. 10 d
[24] = 500 g ai/ha, visual injury, approx. 10 d

Cc1ccc(C2CN(C)C(=O)C2C(=O)Nc2ccccc2C(F)(F)F)cc1 (stereo not drawn) [Compound 665]
Plant response rating, Pigweed [1, 21]: 30
Plant response rating, Pigweed [1, 22]: 30
Plant response rating, Foxtail, Giant [2, 21]: 100
Plant response rating, Foxtail, Giant [2, 22]: 100
Plant response rating, Barnyardgrass [3, 21]: 90
Plant response rating, Barnyardgrass [3, 22]: 90
Plant response rating, Ryegrass, Italian [4, 21]: 20
Plant response rating, Ryegrass, Italian [4, 22]: 50
Plant response rating, Ragweed [5, 21]: 20
Plant response rating, Ragweed [5, 22]: 90
Plant response rating, Kochia [6, 21]: 60
Plant response rating, Kochia [6, 22]: 70
Plant response rating, Sedge, Umbrella [7]: 0
Plant response rating, Rice [8]: 25
Plant response rating, Barnyardgrass [9]: 70
Plant response rating, Ducksalad [10]: 90
Plant response rating, Blackgrass [11, 23]: 40
Plant response rating, Blackgrass [11, 24]: 70
Plant response rating, Pigweed [12, 23]: 0
Plant response rating, Pigweed [12, 24]: 20
Plant response rating, Corn [13, 23]: 40
Plant response rating, Corn [13, 24]: 70
Plant response rating, Foxtail, Giant [14, 23]: 90
Plant response rating, Foxtail, Giant [14, 24]: 90
Plant response rating, Barnyardgrass [15, 23]: 90
Plant response rating, Barnyardgrass [15, 24]: 90
Plant response rating, Wheat [16, 23]: 30
Plant response rating, Wheat [16, 24]: 70
Plant response rating, Ryegrass, Italian [17, 23]: 30
Plant response rating, Ryegrass, Italian [17, 24]: 80
Plant response rating, Ragweed [18, 23]: 0
Plant response rating, Ragweed [18, 24]: 30
Plant response rating, Galium [19, 23]: 50
Plant response rating, Galium [19, 24]: 50
Plant response rating, Kochia [20, 23]: 0
Plant response rating, Kochia [20, 24]: 50
